Measured values from patent publication US9623109B2, “Methods of killing cells and use of same in prevention and treatment of cancer” (Yissum Research Development Company of the Hebrew …, priority 2008, dated 2017).

How the values were obtained:
CKI-epsilon = CKI-epsilon (Homo sapiens, UniProt P49674); details: cited from earlier work
CKI-delta = CKI-delta (Homo sapiens, UniProt P48730); details: cited from earlier work
CKIα KO mice = assay: Sulindac feeding of CKIα knockout mice (gut phenotype, qRT-PCR, Western, IHC, SA-β-gal); format: in vivo, mouse
Description: Tamoxifen (Sigma) was dissolved in Corn Oil (Sigma) to a 20 mg/ml concentration. Mice at 2-3 months were injected subcutaneously with 2 mg Tamoxifen per injection, 5-7 injections every other day, over a 10-14 day period. Mice were sacrificed 4-5 days after the last injection. The colon and part of the small intestine were taken for histology, together with the stomach, liver, pancreas, spleen, kidney, heart and lung. Enterocytes (intestinal epithelial cells) were isolated from most of the small intestine. Enterocytes were used for RNA and protein assays.
All tissues were fixated in 4% formaldehyde for 24 hours, paraffin embedded and sectioned at 5 μm for hematoxylin/eosin (H&E) staining and immunohistochemistry. BrdU (Amersham) was injected intraperitonally at 100 μl/10 g body weight, 2 hours prior to sacrifice. The primary antibodies used were goat anti-CKIα (1:100; Santa Cruz), rabbit anti-Cleaved Caspase-3 (1:100; Cell Signaling), rabbit CM5 (anti-mouse p53) (1:400; Novocastra), mouse anti-β-catenin (1:200; BD transduction), mouse anti-BrdU (1:100; NeoMarkers), rabbit anti-Cyclin D1 (1:125; Lab Vision), mouse anti-p21 (1:50; Santa Cruz), mouse anti-γH2AX (Ser139) (1:100; Upstate), mouse anti-IL-8 (1:125; Bender), rabbit anti-Ki67 (1:300; NeoMarkers). The secondary antibodies used for immunohistochemistry were HRP-polymer anti-Rabbit and anti-Goat (Nichirei), HRP-polymer Mouse on Mouse kit (Nichirei), Mach2 anti mouse-HRP polymer (Biocare) and Mouse-Envision Plus (Dako). HRP was visualized with DAB chromogen (Thermo Scientific) and nuclear counterstain was hemotoxylin (BioOptica). The secondary antibody used for immunofluorescence was goat anti mouse Alexa-488 (1:1000; Molecular Probes). The nuclear counterstain used for immunofluorescence was Hoechst (1.5 μg/ml, Molecular Probes).
For enterocyte isolation, ˜⅔ of the small intestine was washed and minced into small pieces in PBS/1 mM DTT. Intestine was separated into single cells in Ca^2+, Mg^2+ free HBSS containing 10 mM HEPES, 5 mM EDTA and 0.5 mM DTT, at 37° C. for 30 minutes with slow agitation. Lysate was mixed vigorously and cell suspension was centrifuged. Cell pellets were frozen in liquid N2 and stored at −80° C. Protein was extracted from cell pellets in cell lysis buffer containing protease and phosphatase inhibitors. Primary antibodies used in Western blotting were goat-anti CKIα (1:100; Santa Cruz), mouse anti-CKIε (1:250; Santa Cruz), mouse anti-β-catenin (1:2500; BD transduction), rabbit anti-Phospho-β-catenin (Thr41/Ser45) (1:750, Cell Signaling), rabbit CM5 (anti-mouse p53) (1:400; Novocastra), mouse anti-human p53 (1:20; DO-1 hybridoma), rabbit anti-Phospho-p53 (Ser15) (1:1000; Cell Signaling), rabbit anti-Cyclin D1 (1:300; Lab Vision), rabbit anti-Cyclin D2 (1:1000; Santa Cruz), rabbit-anti Bax (1:200; Santa Cruz), mouse anti-MdmX (1:1000; Sigma), goat anti-MdmX (1:200; Santa Cruz), mouse anti-GSK3β (1:2500; BD transduction) rabbit anti-Cleaved Caspase-3 (1:1000; Cell Signaling), rabbit anti-PARP (1:1000; Cell Signaling), mouse anti-p21 (1:200; Santa Cruz), mouse anti-E2F1 (1:500, Santa Cruz), mouse anti-γH2AX (Ser139) (1:1000; Upstate), rabbit anti-Phospho-Chk2 (Thr68) (1:1000; Cell Signaling), rabbit anti-Hsp90 (1:5000; Calbiochem). Secondary antibodies used in Western blotting were HRP-conjugated, goat anti-rabbit, goat anti-mouse and rabbit anti-goat (1:10,000; Jackson). ECL (Amersham) was used for HRP detection. […]

[1] = test system: RKO colorectal carcinoma cells; assay: CKIδ/ε or CKIδ shRNA knockdown in RKO colorectal carcinoma cells (DNA damage response); format: cell-based; details: CKIδ depletion, human colorectal carcinoma cell line, FIG. 21
Description: FIG. 21 is a photograph illustrating the DNA damage response (DDR) upon CKIδ/ε ablation.
For enterocyte isolation, ˜⅔ of the small intestine was washed and minced into small pieces in PBS/1 mM DTT. Intestine was separated into single cells in Ca^2+, Mg^2+ free HBSS containing 10 mM HEPES, 5 mM EDTA and 0.5 mM DTT, at 37° C. for 30 minutes with slow agitation. Lysate was mixed vigorously and cell suspension was centrifuged. Cell pellets were frozen in liquid N2 and stored at −80° C. Protein was extracted from cell pellets in cell lysis buffer containing protease and phosphatase inhibitors. […]
RKO and HCT116 cells were cultured in Dulbecco's modified Eagle's medium, supplemented with 10% fetal calf serum (Sigma). […] CKIα expression levels were determined before each experiment to ensure adequate knockdown. […]

Chain of CKI-epsilon (P49674 whole entry): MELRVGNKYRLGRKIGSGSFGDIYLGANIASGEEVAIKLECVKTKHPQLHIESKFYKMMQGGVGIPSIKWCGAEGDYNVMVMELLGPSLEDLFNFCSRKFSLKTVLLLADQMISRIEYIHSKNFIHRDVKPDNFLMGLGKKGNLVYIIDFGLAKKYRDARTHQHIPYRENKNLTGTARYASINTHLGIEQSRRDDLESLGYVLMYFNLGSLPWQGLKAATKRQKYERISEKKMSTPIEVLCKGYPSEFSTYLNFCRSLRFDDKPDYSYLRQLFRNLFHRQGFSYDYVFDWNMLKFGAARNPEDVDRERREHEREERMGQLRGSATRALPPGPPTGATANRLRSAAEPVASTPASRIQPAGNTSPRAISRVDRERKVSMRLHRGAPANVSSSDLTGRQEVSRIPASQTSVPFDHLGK
Chain of CKI-delta (P48730 whole entry): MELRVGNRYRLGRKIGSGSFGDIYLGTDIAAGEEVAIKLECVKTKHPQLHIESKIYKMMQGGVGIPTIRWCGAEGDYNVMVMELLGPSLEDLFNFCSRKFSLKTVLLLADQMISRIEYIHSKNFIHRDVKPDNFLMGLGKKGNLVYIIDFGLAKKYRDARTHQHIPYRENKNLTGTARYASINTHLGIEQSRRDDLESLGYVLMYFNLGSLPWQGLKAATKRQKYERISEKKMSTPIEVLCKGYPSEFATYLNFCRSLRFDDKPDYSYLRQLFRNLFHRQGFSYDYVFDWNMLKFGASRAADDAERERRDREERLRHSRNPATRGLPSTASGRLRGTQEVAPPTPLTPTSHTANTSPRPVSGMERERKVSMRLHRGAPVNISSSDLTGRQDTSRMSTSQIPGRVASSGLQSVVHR

Molecule: COc1cc(OC)c(C=C2C(O)=Nc3ccccc32)c(OC)c1 [IC261]
- inhibition of CKI-epsilon (CKI-epsilon): specific inhibitor
- inhibition of CKI-delta (CKI-delta): specific inhibitor

Molecule: CC1=C(CC(=O)O)c2cc(F)ccc2/C1=C\c1ccc([S+](C)[O-])cc1 (centres unmarked) [Sulindac]
- cell-non autonomous effects of CKIα deficiency (CKIα KO mice; CKIα KO mice, Sulindac in the drinking water, FIG. 14): prevents
- overall phenotype of the gut tissue: severity of dysplasia (CKIα KO mice; CKIα knockout mice fed Sulindac): greatly reduced
- markers for Wnt activation, inflammation, senescence and cell growth arrest, including CyclinD1, Troy, Cox2, SA-β-gal and p21 (CKIα KO mice; CKIα knockout mice fed Sulindac for the duration of the experiment): significant reduction
- p53-independent senescence phenotype (SA β-gal) induced by CKIα deletion (CKIα KO mice; intestines of CKIα KO mice treated with Sulindac, FIG. 13): reversed
- clusters of cells with high grade dysplasia in the villi (CKIα KO mice; sulindac fed CKIα KO mice, never found in control mutant mice): many clusters of cells were found with high grade dysplasia

Molecule: CKIδ shRNA: shRNA sequence for CKIδ alone (SEQ ID NO: 5), from Open Biosystems, cloned in pLKO vector (CCGGCCCATCGAAGTGTTGTGTAAACTCGAGTTTACACAACACTTCGATGGGTTTTT)
- p53 protein [1]: induced p53 stabilization
